The NIST ThermoML archive (doi:10.1016/j.jct.2005.05.003)
± gives the expanded uncertainty stated by the source.

Assay: mn = molality of the nth substance listed, in mol/kg
Settings: Liquid, Vibrating tube method

[Ca+2].[Cl-].[Cl-] [calcium chloride] + CO
Settings | mass density [kg/m3]
348.24 K, 14994 kPa, m1 = 0.1082 | 766.79 ± 0.53
348.24 K, 14997 kPa, m1 = 0.6588 | 815.48 ± 0.54
348.24 K, 15007 kPa, m1 = 0.2853 | 782.23 ± 0.53
348.24 K, 19987 kPa, m1 = 0.6588 | 820.39 ± 0.55
348.24 K, 19991 kPa, m1 = 0.2853 | 787.34 ± 0.55
348.24 K, 20008 kPa, m1 = 0.1082 | 772.12 ± 0.55
348.24 K, 24982 kPa, m1 = 0.1082 | 777.11 ± 0.57
348.24 K, 24994 kPa, m1 = 0.6588 | 825.04 ± 0.56
348.24 K, 24997 kPa, m1 = 0.2853 | 792.2 ± 0.57
348.24 K, 29990 kPa, m1 = 0.1082 | 781.87 ± 0.59
348.24 K, 29991 kPa, m1 = 0.2853 | 796.8 ± 0.58
348.24 K, 29992 kPa, m1 = 0.6588 | 829.46 ± 0.58
348.24 K, 34986 kPa, m1 = 0.2853 | 801.19 ± 0.6
348.24 K, 34998 kPa, m1 = 0.6588 | 833.71 ± 0.59
348.24 K, 35025 kPa, m1 = 0.1082 | 786.39 ± 0.61
348.24 K, 39992 kPa, m1 = 0.1082 | 790.73 ± 0.63
348.24 K, 40048 kPa, m1 = 0.6588 | 837.76 ± 0.61
348.24 K, 40055 kPa, m1 = 0.2853 | 805.38 ± 0.63
373.24 K, 517 kPa, m1 = 2.393 | 904.38 ± 0.55
373.24 K, 4985 kPa, m1 = 2.393 | 909.14 ± 0.56
373.24 K, 10000 kPa, m1 = 2.393 | 914.19 ± 0.56
373.24 K, 14988 kPa, m1 = 2.393 | 918.95 ± 0.57
373.24 K, 20003 kPa, m1 = 2.393 | 923.48 ± 0.57
373.24 K, 25015 kPa, m1 = 2.393 | 927.81 ± 0.58
373.24 K, 29988 kPa, m1 = 2.393 | 931.93 ± 0.58
373.24 K, 35016 kPa, m1 = 2.393 | 935.94 ± 0.59
373.24 K, 40000 kPa, m1 = 2.393 | 939.74 ± 0.59
373.26 K, 523 kPa, m1 = 0.2853 | 738.51 ± 0.47
373.26 K, 527 kPa, m1 = 0.1082 | 722.32 ± 0.47
373.26 K, 534 kPa, m1 = 0.6588 | 773.01 ± 0.49
373.26 K, 4997 kPa, m1 = 0.2853 | 745.17 ± 0.49
373.26 K, 4999 kPa, m1 = 0.1082 | 729.31 ± 0.48
373.26 K, 5013 kPa, m1 = 0.6588 | 779.26 ± 0.5
373.26 K, 9996 kPa, m1 = 0.2853 | 752.01 ± 0.51
373.26 K, 10000 kPa, m1 = 0.6588 | 785.66 ± 0.52
373.26 K, 10001 kPa, m1 = 0.1082 | 736.45 ± 0.5
373.26 K, 14984 kPa, m1 = 0.2853 | 758.3 ± 0.53
373.26 K, 14986 kPa, m1 = 0.6588 | 791.62 ± 0.53
373.26 K, 15009 kPa, m1 = 0.1082 | 743.03 ± 0.53
373.26 K, 19980 kPa, m1 = 0.2853 | 764.17 ± 0.55
373.26 K, 19981 kPa, m1 = 0.1082 | 749.09 ± 0.55
373.26 K, 20010 kPa, m1 = 0.6588 | 797.23 ± 0.55
373.26 K, 24999 kPa, m1 = 0.2853 | 769.7 ± 0.57
373.26 K, 25000 kPa, m1 = 0.6588 | 802.48 ± 0.57
373.26 K, 25016 kPa, m1 = 0.1082 | 754.83 ± 0.57
373.26 K, 29995 kPa, m1 = 0.1082 | 760.17 ± 0.6
373.26 K, 29996 kPa, m1 = 0.6588 | 807.45 ± 0.58
373.26 K, 30000 kPa, m1 = 0.2853 | 774.89 ± 0.59
373.26 K, 34993 kPa, m1 = 0.2853 | 779.79 ± 0.62
373.26 K, 35000 kPa, m1 = 0.6588 | 812.19 ± 0.6
373.26 K, 35003 kPa, m1 = 0.1082 | 765.25 ± 0.62
373.26 K, 40001 kPa, m1 = 0.6588 | 816.69 ± 0.62
373.26 K, 40004 kPa, m1 = 0.2853 | 784.46 ± 0.64
373.26 K, 40011 kPa, m1 = 0.1082 | 770.07 ± 0.65
398.25 K, 888 kPa, m1 = 2.393 | 878.49 ± 0.54
398.25 K, 5007 kPa, m1 = 2.393 | 883.68 ± 0.55
398.25 K, 10016 kPa, m1 = 2.393 | 889.54 ± 0.55
398.25 K, 14986 kPa, m1 = 2.393 | 895.06 ± 0.56
398.25 K, 19983 kPa, m1 = 2.393 | 900.25 ± 0.57
398.25 K, 24997 kPa, m1 = 2.393 | 905.15 ± 0.57
398.25 K, 29989 kPa, m1 = 2.393 | 909.82 ± 0.58
398.25 K, 34996 kPa, m1 = 2.393 | 914.29 ± 0.59
398.25 K, 40014 kPa, m1 = 2.393 | 918.56 ± 0.59
398.27 K, 880 kPa, m1 = 0.6588 | 744.38 ± 0.48
398.27 K, 899 kPa, m1 = 0.2853 | 709.27 ± 0.46
398.27 K, 901 kPa, m1 = 0.1082 | 692.84 ± 0.45
398.27 K, 4987 kPa, m1 = 0.6588 | 751.36 ± 0.49
398.27 K, 4995 kPa, m1 = 0.2853 | 716.79 ± 0.48
398.27 K, 4999 kPa, m1 = 0.1082 | 700.78 ± 0.47
398.27 K, 9984 kPa, m1 = 0.2853 | 725.04 ± 0.5
398.27 K, 9997 kPa, m1 = 0.6588 | 759.11 ± 0.51
398.27 K, 10005 kPa, m1 = 0.1082 | 709.46 ± 0.5
398.27 K, 14988 kPa, m1 = 0.2853 | 732.54 ± 0.53
398.27 K, 15011 kPa, m1 = 0.1082 | 717.28 ± 0.52
398.27 K, 15012 kPa, m1 = 0.6588 | 766.18 ± 0.53
398.27 K, 19999 kPa, m1 = 0.2853 | 739.43 ± 0.55
398.27 K, 20003 kPa, m1 = 0.1082 | 724.41 ± 0.55
398.27 K, 20013 kPa, m1 = 0.6588 | 772.68 ± 0.55
398.27 K, 24989 kPa, m1 = 0.2853 | 745.78 ± 0.58
398.27 K, 25000 kPa, m1 = 0.6588 | 778.71 ± 0.57
398.27 K, 25003 kPa, m1 = 0.1082 | 730.99 ± 0.58
398.27 K, 29985 kPa, m1 = 0.6588 | 784.37 ± 0.59
398.27 K, 30002 kPa, m1 = 0.2853 | 751.73 ± 0.6
398.27 K, 30013 kPa, m1 = 0.1082 | 737.16 ± 0.61
398.27 K, 34982 kPa, m1 = 0.1082 | 742.86 ± 0.64
398.27 K, 34983 kPa, m1 = 0.2853 | 757.27 ± 0.63
398.27 K, 35012 kPa, m1 = 0.6588 | 789.76 ± 0.61
398.27 K, 39992 kPa, m1 = 0.2853 | 762.54 ± 0.66
398.27 K, 39995 kPa, m1 = 0.1082 | 748.29 ± 0.67
398.27 K, 39999 kPa, m1 = 0.6588 | 794.79 ± 0.64
